From PMC8857453 (Biotechnology Reports, 2022)
Like-named read-outs stand apart in the source and are kept apart here.

What was measured:
[1] = tested on: Aps-t
[2] = tested on: Aps-t; conditions: 50 mM MES pH 6, 100 mM NaCl, 1 mM MgCl2, 37 °C; pNPP stock in 0.1 M sodium acetate pH 4.5

Km [1] | Km [2] | Compound
190 ± 10 µM |  | Nc1ncnc2c1ncn2[C@@H]1O[C@H](COP(=O)(O)OP(=O)(O)O)[C@@H](O)[C@H]1O [ADP]
270 ± 20 µM |  | Nc1ncnc2c1ncn2[C@@H]1O[C@H](COP(=O)(O)O)[C@@H](O)[C@H]1O [AMP]
1000 ± 120 µM |  | Nc1ncnc2c1ncn2[C@@H]1O[C@H](COP(=O)(O)OP(=O)(O)OP(=O)(O)O)[C@@H](O)[C@H]1O [ATP]
 | 94 ± 14 µM | O=[N+]([O-])c1ccc(OP(=O)(O)O)cc1 [pNPP]
